Results taken from ChEMBL document CHEMBL6092162, “Identification of novel and potent triazoles targeting CYP51 for antifungal: Design, synthesis, and biological study” (Eur J Med Chem, 2024).
≈ marks a conversion by molar mass, not a printed value.

How the values were obtained:
[1] = system: Candida albicans; assay: Antifungal activity against fluconazole-resistant Candida albicans CaR assessed as inhibition of fungal growth by CLSI M27-A3 guidelines based method; assay type: functional
[2] = system: Cryptococcus neoformans; assay: Antifungal activity against Cryptococcus neoformans CGMCC 2.3161 assessed as inhibition of fungal growth by CLSI M27-A3 guidelines based method; assay type: functional
[3] = system: Candida albicans; assay: Effect on sterol composition in Candida albicans SC5314 assessed as eburicol content at 1 microg/ml measured after 16 hrs by GC-MS analysis relative to control; assay type: functional; settings: dose 1 µg/ml
[4] = system: Candida albicans; assay: Antifungal activity against fluconazole-resistant Candida albicans clinical isolate 100 assessed as inhibition of fungal growth by CLSI M27-A3 guidelines based method; assay type: functional
[5] = Cytotoxicity against HUVEC cells assessed as inhibition of cell growth incubated for 72 hrs by MTT assay; assay type: toxicity, cell-based; settings: human
[6] = system: Candida albicans; assay: Antibiofilm activity against Candida albicans CPCC400616 assessed as inhibition of morphological transformation by measuring disappearance of mycelium at 2 microg/ml incubated for 4 hrs by microscopic photograph analysis; assay type: functional, organism-based; settings: dose 2.0 µg/ml
[7] = system: Candida albicans; assay: Antibiofilm activity against fluconazole-resistant Candida albicans CPCC400616 assessed as inhibition of metabolic activity of biofilm measured after 24 hrs by XTT reduction assay; assay type: functional
[8] = system: Candida albicans; assay: Effect on sterol composition in Candida albicans SC5314 assessed as other sterols content at 1 microg/ml measured after 16 hrs by GC-MS analysis (reference value: 1.06 %); assay type: functional; settings: dose 1 µg/ml
[9] = system: Pichia kudriavzevii; assay: Antifungal activity against Candida krusei GIM 2.1 assessed as inhibition of fungal growth by CLSI M27-A3 guidelines based method; assay type: functional
[10] = system: Candida parapsilosis; assay: Antifungal activity against Candida parapsilosis GIM 2.190 assessed as inhibition of fungal growth by CLSI M27-A3 guidelines based method; assay type: functional; settings: Lodderomyces parapsilosis
[11] = Cytotoxicity against human OVCAR-3 cells assessed as inhibition of cell growth incubated for 72 hrs by MTT assay; assay type: toxicity, cell-based
[12] = system: Candida albicans; assay: Antifungal activity against fluconazole-resistant Candida albicans clinical isolate 904 assessed as inhibition of fungal growth by CLSI M27-A3 guidelines based method; assay type: functional
[13] = system: Candida albicans; assay: Fungicidal activity against fluconazole and iodiconazole resistant Candida albicans clinical isolate 17# incubated for 48 hrs by SDA plate based method; assay type: functional
[14] = system: Candida albicans; assay: Antifungal activity against fluconazole-resistant Candida albicans clinical isolate 632 assessed as inhibition of fungal growth by CLSI M27-A3 guidelines based method; assay type: functional
[15] = system: Nakaseomyces glabratus; assay: Antifungal activity against Candida glabrata assessed as inhibition of fungal growth by CLSI M27-A3 guidelines based method; assay type: functional
[16] = system: Candida albicans; assay: Effect on sterol composition in Candida albicans SC5314 assessed as ergosterol content at 1 microg/ml measured after 16 hrs by GC-MS analysis (reference value: 96.96 %); assay type: functional; settings: dose 1 µg/ml
[17] = system: Candida albicans; assay: Antifungal activity against fluconazole-resistant Candida albicans clinical isolate 901 assessed as inhibition of fungal growth by CLSI M27-A3 guidelines based method; assay type: functional
[18] = system: Candida albicans; assay: Effect on sterol composition in Candida albicans SC5314 assessed as obtusifoliol content at 1 microg/ml measured after 16 hrs by GC-MS analysis relative to control; assay type: functional; settings: dose 1 µg/ml
[19] = system: Candida albicans; assay: Fungicidal activity against Candida albicans SC5314 incubated for 48 hrs by SDA plate based method; assay type: functional
[20] = system: Candida albicans; assay: Antifungal activity against Candida albicans SC5314 assessed as inhibition of fungal growth by CLSI M27-A3 guidelines based method; assay type: functional
[21] = system: Candida tropicalis; assay: Antifungal activity against Candida tropicalis GIM 2.183 assessed as inhibition of fungal growth by CLSI M27-A3 guidelines based method; assay type: functional
[22] = system: Candida albicans; assay: Antifungal activity against Candida albicans GIM 2.194 assessed as inhibition of fungal growth by CLSI M27-A3 guidelines based method; assay type: functional
[23] = system: Candida albicans; assay: Effect on sterol composition in Candida albicans SC5314 assessed as lanosterol content at 1 microg/ml measured after 16 hrs by GC-MS analysis relative to control; assay type: functional; settings: dose 1 µg/ml
[24] = system: Candida albicans; assay: Antibiofilm activity against fluconazole-resistant Candida albicans CPCC400616 assessed as inhibition of metabolic activity of biofilm measured after 48 hrs by XTT reduction assay; assay type: functional
[25] = system: Candida albicans; assay: Antibiofilm activity against fluconazole-resistant Candida albicans CPCC400616 assessed as inhibition of metabolic activity of biofilm measured after 6 hrs by XTT reduction assay; assay type: functional
[26] = system: Candida albicans; assay: Antifungal activity against fluconazole-resistant Candida albicans clinical isolate 311 assessed as inhibition of fungal growth by CLSI M27-A3 guidelines based method; assay type: functional
[27] = system: Candida albicans; assay: Effect on sterol composition in Candida albicans SC5314 assessed as 14alpha-demethyllanosterol content at 1 microg/ml measured after 16 hrs by GC-MS analysis (reference value: 1.98 %); assay type: functional; settings: dose 1 µg/ml
[28] = system: Candida albicans; assay: Antifungal activity against fluconazole and iodiconazole resistant Candida albicans clinical isolate 17# assessed as inhibition of fungal growth by CLSI M27-A3 guidelines based method; assay type: functional
[29] = system: Candida albicans; assay: Antifungal activity against fluconazole-resistant Candida albicans clinical isolate 103 assessed as inhibition of fungal growth by CLSI M27-A3 guidelines based method; assay type: functional
[30] = Cytotoxicity against human NCI-H460 cells assessed as inhibition of cell growth incubated for 72 hrs by MTT assay; assay type: toxicity, cell-based
[31] = Cytotoxicity against HEK293T cells assessed as inhibition of cell growth incubated for 72 hrs by MTT assay; assay type: toxicity, cell-based, HEK-293T; settings: human

Compound: OC(Cn1cncn1)(Cn1cncn1)c1ccc(F)cc1F [FLUCONAZOLE]
- MIC80 [1]: > 64 µg/mL
- MIC80 [2]: 4 µg/mL (≈ 13.1 µM)
- Activity [3]: 60.09%
- MIC80 [4]: > 64 µg/mL
- IC50 at 72 h [5]: > 40 µM
- Activity [6]: Not active; Oval Shaped Yeast Phase Fungi Observed
- MIC50 [7]: > 32 µg/mL
- Activity [8]: 8.64%
- MIC80 [9]: 8 µg/mL (≈ 26.1 µM)
- MIC80 [10]: 1 µg/mL (≈ 3.27 µM)
- IC50 at 72 h [11]: > 40 µM
- MIC80 [12]: > 64 µg/mL
- MFC [13]: > 64 µg/mL
- MIC80 [14]: > 64 µg/mL
- MIC80 [15]: 8 µg/mL (≈ 26.1 µM)
- Activity [16]: 4.57%
- MIC80 [17]: > 64 µg/mL
- Activity [18]: 14.37%
- MFC [19]: > 64 µg/mL
- MIC80 [20]: 0.25 µg/mL (≈ 0.816 µM)
- MIC80 [21]: 0.25 µg/mL (≈ 0.816 µM)
- MIC80 [22]: 0.5 µg/mL (≈ 1.63 µM)
- Activity [23]: 9.3%
- MIC50 [24]: > 32 µg/mL
- MIC50 [25]: 16 µg/mL (≈ 52.2 µM)
- MIC80 [26]: > 64 µg/mL
- Activity [27]: 3.03%
- MIC80 [28]: > 64 µg/mL
- MIC80 [29]: > 64 µg/mL
- IC50 at 72 h [30]: > 40 µM
- IC50 at 72 h [31]: > 40 µM
